Results taken from patent US20090061461A1, “Phosphorylated or Non-Phosphorylated MPR as Diagnostic Marker or Therapeutic Target” (priority 2005, published 2009).

Tests used:
[1] = tested on: MCF-7 breast cancer cells; experiment: Stable transfection of MCF-7 cells, colony formation / cell count after 2 weeks of selection; assay type: cell-based, human; conditions: MCF-7 cells transfected with pcDNA3.1 HA-tagged mPR plasmid, 2 weeks hygromycin B selection
Description: Colonies were grown from all transfected cell lines. […] This anti-proliferative effect of both of these mutants was not observed using transiently transfected cells used for immunohistochemistry in cytospins because these were assayed shortly after transfection.
Therefore, treatments that would promote the formation of the hypophosphorylated dimeric form in tumors would be highly desirable. […] Therefore the interaction of an SH3-domain-containing protein that interacts with the SH3-domain target sequence that contains serine 56 is necessary to manifest the antiproliferative phenotype associated with non-phosphorylated serine 180. The interaction of this unknown protein is inhibited by phosphorylation of serine 56, thereby preventing the antiproliferative phenotype and enhancing proliferative ability. Conversely, when an SH2-domain-containing protein can bind to the phosphorylated tyrosine 179 adjacent to non-phosphorylated serine 180 then the antiproliferative effect is antagonized, and cells can proliferate. […]
MCF-7 cells stably transfected with mPR and mutants, respectively, were established. […] To that aim colonies were trypsinized, counted and diluted in two-fold dilutions.

[2] = molecular target: T1, DCC (Homo sapiens, UniProt P43146); experiment: Immune precipitation of DCC with HA-tagged mPR, Western blot with anti-DCC AF5; assay type: binding; conditions: MCF7 cells, 24 hours after transfection, anti-HA immunoprecipitation
T1 construct: endogenous in cells; host or cells: MCF7 human breast cancer cells, transfected only with mPR-3HA expression plasmids
T1 sequence (P43146 26-1447): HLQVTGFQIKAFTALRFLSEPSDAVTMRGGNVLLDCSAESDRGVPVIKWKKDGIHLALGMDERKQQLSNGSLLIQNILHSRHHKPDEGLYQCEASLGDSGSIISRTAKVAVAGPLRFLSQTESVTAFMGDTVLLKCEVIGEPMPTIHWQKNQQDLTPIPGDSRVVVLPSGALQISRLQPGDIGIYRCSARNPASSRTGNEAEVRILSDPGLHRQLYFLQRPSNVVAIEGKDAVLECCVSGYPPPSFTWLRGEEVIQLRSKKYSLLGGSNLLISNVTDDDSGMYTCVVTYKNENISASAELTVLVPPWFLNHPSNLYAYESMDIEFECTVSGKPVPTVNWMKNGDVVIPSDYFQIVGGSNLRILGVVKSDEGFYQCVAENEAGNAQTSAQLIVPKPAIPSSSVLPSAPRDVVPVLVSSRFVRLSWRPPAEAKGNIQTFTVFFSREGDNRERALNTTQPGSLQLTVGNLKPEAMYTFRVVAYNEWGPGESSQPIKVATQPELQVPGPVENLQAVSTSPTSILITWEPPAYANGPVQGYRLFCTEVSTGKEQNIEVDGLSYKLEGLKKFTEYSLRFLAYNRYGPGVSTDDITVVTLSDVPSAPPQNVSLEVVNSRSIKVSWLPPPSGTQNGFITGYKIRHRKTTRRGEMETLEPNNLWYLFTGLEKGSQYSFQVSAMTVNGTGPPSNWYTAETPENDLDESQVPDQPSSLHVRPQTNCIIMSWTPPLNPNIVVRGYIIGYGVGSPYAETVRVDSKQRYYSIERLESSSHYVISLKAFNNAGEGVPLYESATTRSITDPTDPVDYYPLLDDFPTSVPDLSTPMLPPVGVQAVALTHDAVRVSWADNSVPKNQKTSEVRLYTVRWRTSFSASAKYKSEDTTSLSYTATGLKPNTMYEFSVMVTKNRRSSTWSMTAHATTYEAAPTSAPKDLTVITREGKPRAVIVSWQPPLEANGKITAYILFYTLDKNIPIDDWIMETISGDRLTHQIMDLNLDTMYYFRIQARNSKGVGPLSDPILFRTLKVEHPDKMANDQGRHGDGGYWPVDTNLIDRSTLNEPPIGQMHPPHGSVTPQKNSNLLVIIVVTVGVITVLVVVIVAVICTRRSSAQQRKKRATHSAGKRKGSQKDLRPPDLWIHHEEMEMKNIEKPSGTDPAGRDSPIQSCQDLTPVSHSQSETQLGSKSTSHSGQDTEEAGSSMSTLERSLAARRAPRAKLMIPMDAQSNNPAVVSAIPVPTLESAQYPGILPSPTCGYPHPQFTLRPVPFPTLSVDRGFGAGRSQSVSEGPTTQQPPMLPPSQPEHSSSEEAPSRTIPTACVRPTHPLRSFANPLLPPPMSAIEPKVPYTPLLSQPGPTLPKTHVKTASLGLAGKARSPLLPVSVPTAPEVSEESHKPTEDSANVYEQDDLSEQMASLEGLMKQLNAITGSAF
Description: Therefore it is most reasonable to assume that mPR will be detectable in a complex with DCC. […] Aliquots of 2×10^6 MCF7 cells were transfected as described below with each of the mPR expression vectors.
After 24 hours the mPR-3HA proteins were affinity purified with an anti-HA anti-body described above. The AF5 anti DCC human monoclonal antibody (Merck Biosciences OP45 Anti-DCC Mouse mAb AF5) was used to detect the presence of DCC by Western Blot. Normalized amounts of the precleared incubation reaction, the final supernatant after removal of the immuno-precipitate, and of the immuno-precipitated pellet were loaded to SDS-PAGE gels, blotted to membranes, and Western Blotted with the AF5 anti-DCC antibody. […] The size of the band was slightly higher than the predicted 158 kDa for DCC, possibly due to post-translational modification of the protein. An approximately 100 kDa band also reacted with the anti-DCC monoclonal antibody in Western Blot, which may represent a proteolytic fragment of DCC. […] We are not naively claiming a phosphorylated form of mPR interacts with DCC, which is not shown by our data. […]
MCF-7 breast cancer cells were transfected by Lipofection with 5 μg of pcDNA3.1 containing HA-tagged mPR-wt, tagged mutant S56A, S180A, S56A/S180A, or tagged mutant S56A/C128S/[…]. […] For IP the cells were trypsinized, counted and cell pellets were snap frozen and stored at −80° C. […]

[3] = tested on: breast cancer exhibiting a positive ER status; conditions: patients with breast cancer of positive ER status; cited from earlier work

Molecule	number of colonies / ability to proliferate [1]	also measured
S56A/C128S/S180A: HA-tagged mPR triple mutant: serine 56 and 180 to alanine, cysteine 128 to serine	able to proliferate	
wild-type mPR: HA-tagged wild-type membrane associated progesterone receptor component 1 expressed from pcDNA3_MPR-3HA		DCC band in immune precipitation pellet [2]: A high molecular weight DCC band was observed
S56A/S180A: HA-tagged mPR (PGRMC1) with serine 56 and serine 180 mutated to alanine, expressed from plasmid pcDNA3.1	drastically reduced to effectively background levels	
CC/C(=C(\c1ccccc1)c1ccc(OCCN(C)C)cc1)c1ccccc1 [tamoxifen]		fraction of cases in which effective [3]: approximately 50%
